ChEMBL document CHEMBL5316327, “Design and Synthesis of Orally Active Quinolyl Pyrazinamides as Sigma 2 Receptor Ligands for the Treatment of Pancreatic Cancer” (J Med Chem, 2023)
Active and inactive are the calls of the source. The rule behind the calls is not given here.

How the values were obtained:
[1] = Cytotoxicity against HFF-1 cells measured after 72 hrs by MTT assay; type: toxicity, cell-based; conditions: human
HCT-116 [2] = assay: Induction of apoptosis in human HCT-116 cells assessed as viable cells at 1.0 uM measured after 48 hrs by Annexin V-Alexa Fluor 488/propidium iodide staining based flow cytometry (reference value: 79.69%); type: functional; conditions: read-out: Activity
MIA PaCa-2 [3] = assay: Induction of cell cycle arrest in human MIA PaCa-2 cells assessed as accumulation of cells in G2/M phase at 10 uM measured after 24 hrs by propidium iodide staining-based flow cytometric analysis (reference value: 16%); type: functional
[4] = Volume of distribution at steady state in CD-1 mouse plasma at 10 mg/kg, iv; type: ADME, organism-based; conditions: read-out: Vdss
[5] = molecular target: 5-hydroxytryptamine receptor 2B (Homo sapiens, UniProt P41595); assay: Binding affinity to 5-HT2B receptor (unknown origin) assessed as inhibition constant
Sequence of 5-hydroxytryptamine receptor 2B (P41595 whole entry): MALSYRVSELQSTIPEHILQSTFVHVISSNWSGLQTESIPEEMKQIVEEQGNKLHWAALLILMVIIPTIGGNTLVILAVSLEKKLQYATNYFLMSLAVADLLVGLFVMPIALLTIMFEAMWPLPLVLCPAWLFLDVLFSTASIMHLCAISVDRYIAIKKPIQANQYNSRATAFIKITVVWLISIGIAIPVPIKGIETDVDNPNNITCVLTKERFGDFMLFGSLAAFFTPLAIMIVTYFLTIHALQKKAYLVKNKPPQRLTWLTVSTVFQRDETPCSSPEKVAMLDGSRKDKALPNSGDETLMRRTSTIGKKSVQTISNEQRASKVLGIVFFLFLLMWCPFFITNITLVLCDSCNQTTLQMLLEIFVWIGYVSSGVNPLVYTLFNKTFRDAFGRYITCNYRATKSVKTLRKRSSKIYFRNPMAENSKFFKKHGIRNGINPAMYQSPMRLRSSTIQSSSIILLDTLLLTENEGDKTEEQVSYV

HCT-116 [6] = assay: Induction of cell cycle arrest in human HCT-116 cells assessed as accumulation of cells in G2/M phase at […] measured after 24 hrs by propidium iodide staining-based flow cytometric analysis (reference value: 10%); type: functional; conditions: dose 2.5 µM
HCT-116 [7] = assay: Induction of cell cycle arrest in human HCT-116 cells assessed as accumulation of cells in G2/M phase at 10 uM measured after 24 hrs by propidium iodide staining-based flow cytometric analysis (reference value: 10%); type: functional
HCT-116 [8] = assay: Synergistic cytotoxicity against human HCT-116 cells at upto 1 uM measured after 6 days in presence of silver acetate by crystal violet staining based analysis; type: functional, cell-based; conditions: time 6.0 day
[9] = Metabolic stability in human liver microsomes assessed as half life at 10 uM measured upto 60 mins in presence of NADPH by LC-MS/MS analysis; type: ADME, Microsome; conditions: liver microsomes
MIA PaCa-2 [10] = assay: Synergistic cytotoxicity in human MIA PaCa-2 cells at upto 1 uM measured after 7 days in presence of vemurafenib by crystal violet staining based analysis; type: functional, cell-based; conditions: time 7.0 day
MIA PaCa-2 [11] = assay: Induction of cell cycle arrest in human MIA PaCa-2 cells assessed as accumulation of cells in G2/M phase at 5 uM measured after 24 hrs by propidium iodide staining-based flow cytometric analysis (reference value: 16%); type: functional
MIA PaCa-2 [12] = assay: Induction of cell cycle arrest in human MIA PaCa-2 cells assessed as accumulation of cells in S phase at […] measured after 24 hrs by propidium iodide staining-based flow cytometric analysis (reference value: 31%); type: functional; conditions: dose 2.5 µM
MIA PaCa-2 [13] = assay: Induction of apoptosis in human MIA PaCa-2 cells assessed as early apoptotic cells at 5.0 uM measured after 48 hrs by Annexin V-Alexa Fluor 488/propidium iodide staining based flow cytometry (reference value: 4.11%); type: functional
MIA PaCa-2 [14] = assay: Induction of cell cycle arrest in human MIA PaCa-2 cells assessed as accumulation of cells in G0/G1 phase at […] measured after 24 hrs by propidium iodide staining-based flow cytometric analysis (reference value: 53%); type: functional; conditions: dose 2.5 µM
MIA PaCa-2 [15] = assay: Induction of cell cycle arrest in human MIA PaCa-2 cells assessed as accumulation of cells in G0/G1 phase at 1 uM measured after 24 hrs by propidium iodide staining-based flow cytometric analysis (reference value: 53%); type: functional
[16] = Clearance in CD-1 mouse plasma at 10 mg/kg, iv; type: ADME, organism-based
[17] = AUC (0 to infinity) in CD-1 mouse plasma at 20 mg/kg, po; type: ADME, organism-based; parameters: dose 20 mg/kg, route po
MIA PaCa-2 [18] = assay: Synergistic cytotoxicity in human MIA PaCa-2 cells at upto 1 uM measured after 7 days in presence of irinotecan by crystal violet staining based analysis; type: functional, cell-based; conditions: time 7.0 day
[19] = Apparent oral clearance in CD-1 mouse plasma at 20 mg/kg, po; type: ADME, organism-based
MIA PaCa-2 [20] = assay: Induction of cell cycle arrest in human MIA PaCa-2 cells assessed as accumulation of cells in G0/G1 phase at 10 uM measured after 24 hrs by propidium iodide staining-based flow cytometric analysis (reference value: 53%); type: functional
HCT-116 [21] = assay: Induction of cell cycle arrest in human HCT-116 cells assessed as accumulation of cells in S phase at 5 uM measured after 24 hrs by propidium iodide staining-based flow cytometric analysis (reference value: 47%); type: functional
HCT-116 [22] = assay: Induction of apoptosis in human HCT-116 cells assessed as viable cells at 5.0 uM measured after 48 hrs by Annexin V-Alexa Fluor 488/propidium iodide staining based flow cytometry (reference value: 79.69%); type: functional; conditions: read-out: Activity

Question: With `CCN(CC)CCCC(C)Nc1cnc(C(=O)Nc2ccc(Cl)c3cccnc23)cn1` (configuration not stated) as the molecule, how does the IC50 at 72 h [1] read?
Answer: 8 µM

Question: And the viability at 1 µM (HCT-116 [2])?
Answer: 78.3%

Question: What about the Activity (MIA PaCa-2 [3]) of the same molecule?
Answer: 17%

Question: And the Vd [4]?
Answer: 21.4 L/kg

Question: And the Ki [5]?
Answer: 0.427 µM

Question: And the Activity (HCT-116 [6])?
Answer: 19%

Question: And the Activity (HCT-116 [7])?
Answer: 22%

Question: What about the Activity (HCT-116 [8]) of the same molecule?
Answer: inactive

Question: What about the half-life at 10 µM [9] of the same molecule?
Answer: > 1 h

Question: And the Activity (MIA PaCa-2 [10])?
Answer: inactive

Question: What about the Activity (MIA PaCa-2 [11]) of the same molecule?
Answer: 17%

Question: What about the Activity (MIA PaCa-2 [12]) of the same molecule?
Answer: 35%

Question: And the Activity (MIA PaCa-2 [13])?
Answer: 22.26%

Question: What about the Activity (MIA PaCa-2 [14]) of the same molecule?
Answer: 49%

Question: And the Activity (MIA PaCa-2 [15])?
Answer: 46%

Question: What about the clearance [16] of the same molecule?
Answer: 62.2 mL/min/kg

Question: And the AUC(0-inf) [17]?
Answer: 3390 ng·h/mL

Question: And the Activity (MIA PaCa-2 [18])?
Answer: inactive

Question: What about the CL/F [19] of the same molecule?
Answer: 98.3 mL/min/kg

Question: And the Activity (MIA PaCa-2 [20])?
Answer: 69%

Question: And the Activity (HCT-116 [21])?
Answer: 35%

Question: And the viability at 5 µM (HCT-116 [22])?
Answer: 64.1%
